The values that follow are results of earlier work, collected in patent US10603401B2, “Dressing system” (Edixomed Limited, priority 2015, dated 2020).

The conditions of the series: healthy 70 kg-adult.
On to `COC(=O)[C@H]1[C@@H](OC(=O)c2ccccc2)C[C@@H]2CC[C@H]1N2C` [cocaine], for which the “Generally accepted safe dosage for topical anaesthesia” value (from here on “Generally accepted safe dosage”) is listed as 200 mg.

In the case of `CCN(CC)CC(=O)Nc1c(C)cccc1C` [lidocaine], the “Generally accepted safe dosage” value is recorded as 750 mg.

As for `CCCCNc1ccc(C(=O)OCCN(C)C)cc1` [tetracaine], the “Generally accepted safe dosage” value is reported as 50 mg.
